Measurements taken from US5208259A, “Diaryl ether hetrocycles” (Imperial Chemical Industries, priority 1989, dated 1993).

Columns and labels:
5-LO [1] = test: Test b) heparinised human blood challenged with A23187, LTB4 radioimmunoassay; type: cell-based; details: A23187, against LTB4
Protocol: b) An in vitro assay system involving incubating a test compound with heparinised human blood, prior to challenge with the calcium ionophore A23187 and then indirectly measuring the inhibitory effects on 5-L0 by assaying the amount of LTB4 using the specific radioimmunoassay described by Carey and Forder (F. Carey and R. A. Forder, Brit. J. Pharmacol. 1985, 84, 34P) which involves the use of a protein-LTB4 conjugate produced using the procedure of Young et alia (Prostaglandins, 1983, 26(4), 605-613). The effects of a test compound on the enzyme cyclooxygenase (which is involved in the alternative metabolic pathway for arachidonic acid and gives rise to prostaglandins, thromboxanes and related metabolites) may be measured at the same time using the specific radioimmunoassay for thromboxane B2 (TxB2) described by Carey and Forder (see above). This test provides an indication of the effects of a test compound against 5-L0 and also cylooxygenase in the presence of blood cells and proteins. It permits the selectivity of the inhibitory effect on 5-L0 or cyclooxygenase to be assessed.

5-LO [2] = test: Test g) zymosan-induced liberation of LTB4 within air pouch of male rats; type: in vivo; details: 3 h; Test g), rat air pouch, oral
Protocol: g) An in vivo system involving measuring the effects of a test compound administered orally against the liberation of LTB4 induced by zymosan within an air pouch generated within the subcutaneous tissue of the back of male rats. The rats are anaesthetised and air pouches are formed by the injection of sterile air (20 ml). A further injection of air (10 ml) is similarly given after 3 days). At 6 days after the initial air injection the test compound is administered (usually orally as the suspension produced when a solution of the test compound in dimethylsulphoxide is added to hydroxypropylmethylcellulose), followed by the intrapouch injection of zymosan (1 ml of a 1% suspension in physiological saline). After 3 hours the rats are killed, the air pouches are lavaged with physiological saline, and the specific radioimmunoassay described above is used to assay LTB4 in the washings. This test provides an indication of inhibitory effects against 5-L0 in an inflammatory milieu.

5-LO [3] = test: Test c) ex vivo assay: oral administration, blood collection, A23187 challenge, radioimmunoassay of LTB4; type: in vivo
Protocol: c) An ex vivo assay system, which is a variation of test b) above, involving administration of a test compound (usually orally as the suspension produced when a solution of the test compound in dimethylsulphoxide is added to carboxymethylcellulose), blood collection, heparinisation, challenge with A23187 and radioimmunoassay of LTB4 and TxB2. This test provides an indication of the bioavailability of a test compound as an inhibitor of 5-L0 or cyclooxygenase.

Structure (SMILES)	IC50 (5-LO [1]) [nM]	ED50 (5-LO [2]) [mg/kg]	ED50 (5-LO [3]) [mg/kg]
COC1(c2cccc(Sc3ccc4ccccc4c3)c2)CCOCC1 [4-methoxy-4-[3-(naphth-2-ylthio)phenyl]tetrahydropyran]	< 150	< 10	3
CO[C@]1(c2cc(F)cc(Sc3ccc(C(C)(C)C)cc3)c2)CCO[C@@H](C)C1 [(2S,4R)-4-[5-fluoro-3-(4-tert-butylphenylthio)phenyl]-4-methoxy-2-methyltetrahydropyran]	< 150	0.75	2
